Data taken from PubChem BioAssay (NCI).
Several values for one entry are separate records, joined by “and”; a condition that tells them apart may be missing. Identical values can stand only once.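 Cultured in 96-well plates, cells were exposed to test compound for 48 hours across five concentrations. Abbreviation: GI50, concentration required for 50% inhibition of growth. TGI: total growth inhibition.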

Experiments:
Assay in all cases: DTP human tumour cell line panel, 48 h
786-0 renal = system: 786-0 renal
A498 renal = system: A498 renal
A549 NSCLC = system: A549 NSCLC
ACHN renal = system: ACHN renal
BT-549 breast = system: BT-549 breast
CAKI-1 renal = system: CAKI-1 renal
CCRF-CEM leukemia = system: CCRF-CEM leukemia
COLO 205 colon = system: COLO 205 colon
DU-145 prostate = system: DU-145 prostate
HCC-2998 colon = system: HCC-2998 colon
HCT-116 colon = system: HCT-116 colon
HCT-15 colon = system: HCT-15 colon
HL-60(TB) leukemia = system: HL-60(TB) leukemia
HOP-62 NSCLC = system: HOP-62 NSCLC
HOP-92 NSCLC = system: HOP-92 NSCLC
HS 578T breast = system: HS 578T breast
HT29 colon = system: HT29 colon
IGROV1 ovarian = system: IGROV1 ovarian
K-562 leukemia = system: K-562 leukemia
KM12 colon = system: KM12 colon
LOX IMVI melanoma = system: LOX IMVI melanoma
M14 melanoma = system: M14 melanoma
MALME-3M melanoma = system: MALME-3M melanoma
MCF7 breast = system: MCF7 breast
MDA-MB-231 breast = system: MDA-MB-231 breast
MDA-MB-435 = system: MDA-MB-435
MOLT-4 leukemia = system: MOLT-4 leukemia
NCI-H226 lung = system: NCI-H226 lung
NCI-H23 lung = system: NCI-H23 lung
NCI-H460 lung = system: NCI-H460 lung
NCI-H522 lung = system: NCI-H522 lung
NCI/ADR-RES ovarian = system: NCI/ADR-RES ovarian
OVCAR-3 ovarian = system: OVCAR-3 ovarian
OVCAR-4 ovarian = system: OVCAR-4 ovarian
OVCAR-5 ovarian = system: OVCAR-5 ovarian
OVCAR-8 ovarian = system: OVCAR-8 ovarian
PC-3 prostate = system: PC-3 prostate
RPMI-8226 leukemia = system: RPMI-8226 leukemia
RXF 393 renal = system: RXF 393 renal
SF-268 CNS = system: SF-268 CNS
SF-295 CNS = system: SF-295 CNS
SF-539 CNS = system: SF-539 CNS
SK-MEL-28 melanoma = system: SK-MEL-28 melanoma
SK-MEL-5 melanoma = system: SK-MEL-5 melanoma
SK-OV-3 ovarian = system: SK-OV-3 ovarian
SN12C renal = system: SN12C renal
SNB-19 CNS = system: SNB-19 CNS
SNB-75 CNS = system: SNB-75 CNS
SR leukemia = system: SR leukemia
SW-620 colon = system: SW-620 colon
T-47D breast = system: T-47D breast
TK-10 renal = system: TK-10 renal
U251 CNS = system: U251 CNS
UACC-257 melanoma = system: UACC-257 melanoma
UACC-62 melanoma = system: UACC-62 melanoma
UO-31 renal = system: UO-31 renal
SK-MEL-2 melanoma = system: SK-MEL-2 melanoma

## CC(C)CCNCC(O)Cn1c2ccccc2c2ccccc21 (stereo not given)
786-0 renal
  GI50: 13200 nM
  TGI: 27300 nM
A498 renal
  GI50: 9520 nM
  TGI: 22800 nM
A549 NSCLC
  GI50: 16400 nM
  TGI: 31900 nM
ACHN renal
  GI50: 10500 nM
  TGI: 23400 nM
BT-549 breast
  GI50: 16500 nM
  TGI: 31400 nM
CAKI-1 renal
  GI50: 14300 nM
  TGI: 29800 nM
CCRF-CEM leukemia
  GI50: 12800 nM
  TGI: 31700 nM
COLO 205 colon
  GI50: 2000 nM
  TGI: 3950 nM
DU-145 prostate
  GI50: 14600 nM
  TGI: 27900 nM
HCC-2998 colon
  GI50: 2060 nM
  TGI: 4220 nM
HCT-116 colon
  GI50: 9470 nM
  TGI: 24100 nM
HCT-15 colon
  GI50: 11900 nM
  TGI: 26700 nM
HL-60(TB) leukemia
  GI50: 14300 nM
  TGI: 31600 nM
HOP-62 NSCLC
  GI50: 15400 nM
  TGI: 29700 nM
HOP-92 NSCLC
  GI50: 2710 nM
  TGI: 18100 nM
HS 578T breast
  GI50: 13800 nM
  TGI: 38900 nM
HT29 colon
  GI50: 3420 nM
  TGI: 10600 nM
IGROV1 ovarian
  GI50: 14000 nM
  TGI: 32100 nM
K-562 leukemia
  GI50: 3690 nM
  TGI: 13200 nM
KM12 colon
  GI50: 3910 nM
  TGI: 14400 nM
LOX IMVI melanoma
  GI50: 5600 nM
  TGI: 18500 nM
M14 melanoma
  GI50: 2730 nM
  TGI: 7500 nM
MALME-3M melanoma
  GI50: 7170 nM
  TGI: 23000 nM
MCF7 breast
  GI50: 2720 nM
  TGI: 10300 nM
MDA-MB-231 breast
  GI50: 3510 nM
  TGI: 14400 nM
MDA-MB-435
  GI50: 3820 nM
  TGI: 14800 nM
MOLT-4 leukemia
  GI50: 10200 nM
  TGI: 25900 nM
NCI-H226 lung
  GI50: 15700 nM
  TGI: 37900 nM
NCI-H23 lung
  GI50: 16400 nM
  TGI: 31900 nM
NCI-H460 lung
  GI50: 3640 nM
  TGI: 13700 nM
NCI-H522 lung
  GI50: 13600 nM
  TGI: 27700 nM
NCI/ADR-RES ovarian
  GI50: 14200 nM
  TGI: 30700 nM
OVCAR-3 ovarian
  GI50: 13400 nM
  TGI: 26800 nM
OVCAR-4 ovarian
  GI50: 12900 nM
  TGI: 27200 nM
OVCAR-5 ovarian
  GI50: 12400 nM
  TGI: 25700 nM
OVCAR-8 ovarian
  GI50: 13700 nM
  TGI: 33700 nM
PC-3 prostate
  GI50: 10600 nM
  TGI: 23000 nM
RPMI-8226 leukemia
  GI50: 3100 nM
  TGI: 11200 nM
RXF 393 renal
  GI50: 5360 nM
  TGI: 19900 nM
SF-268 CNS
  GI50: 12200 nM
  TGI: 26400 nM
SF-295 CNS
  GI50: 19400 nM
  TGI: 39400 nM
SF-539 CNS
  GI50: 15800 nM
  TGI: 30200 nM
SK-MEL-28 melanoma
  GI50: 4420 nM
  TGI: 16100 nM
SK-MEL-5 melanoma
  GI50: 2270 nM
  TGI: 6250 nM
SK-OV-3 ovarian
  GI50: 17200 nM
  TGI: 31200 nM
SN12C renal
  GI50: 11200 nM
  TGI: 25100 nM
SNB-19 CNS
  GI50: 13800 nM
  TGI: 28800 nM
SNB-75 CNS
  GI50: 6540 nM
  TGI: 21000 nM
SR leukemia
  GI50: 2450 nM
  TGI: 6380 nM
SW-620 colon
  GI50: 10400 nM
  TGI: 24000 nM
T-47D breast
  GI50: 3990 nM
  TGI: 14600 nM
TK-10 renal
  GI50: 14000 nM
  TGI: 27600 nM
U251 CNS
  GI50: 10500 nM
  TGI: 23500 nM
UACC-257 melanoma
  GI50: 5000 nM
  TGI: 17200 nM
UACC-62 melanoma
  GI50: 10400 nM
  TGI: 22400 nM
UO-31 renal
  GI50: 9210 nM
  TGI: 23300 nM

## COc1ccc2nc3cccc([N+](=O)[O-])c3c(NCCCO)c2c1
786-0 renal
  TGI: 51.7 nM
A498 renal
  GI50: 17 nM and 27.5 nM
  TGI: 43.5 nM and 78.8 nM
A549 NSCLC
  TGI: 22.3 nM and 102 nM
BT-549 breast
  TGI: 14.6 nM and 92.9 nM
CAKI-1 renal
  TGI: 24.8 nM
CCRF-CEM leukemia
  GI50: 5.83 nM and 15.3 nM
  TGI: 57.2 nM and 133 nM
DU-145 prostate
  TGI: 15600 nM
HCC-2998 colon
  GI50: 1.86 nM
HCT-116 colon
  TGI: 1010 nM
HL-60(TB) leukemia
  GI50: 2.33 nM
HOP-62 NSCLC
  GI50: 2.82 nM
  TGI: 15.7 nM and 19.3 nM
HOP-92 NSCLC
  GI50: 15.4 nM
  TGI: 56.5 nM
HS 578T breast
  GI50: 4.45 nM and 33 nM
HT29 colon
  TGI: 1.83 nM
IGROV1 ovarian
  TGI: 31.3 nM and 290 nM
KM12 colon
  GI50: 1.83 nM
  TGI: 14.6 nM and 14.1 nM
LOX IMVI melanoma
  GI50: 8.5 nM and 47.1 nM
M14 melanoma
  TGI: 2.27 nM
MALME-3M melanoma
  GI50: 1.16 nM
  TGI: 3.44 nM and 20.2 nM
MCF7 breast
  TGI: 13.4 nM and 38.9 nM
MDA-MB-231 breast
  GI50: 2260 nM
MDA-MB-435
  TGI: 1.7 nM and 12.8 nM
MOLT-4 leukemia
  GI50: 3.28 nM and 18.1 nM
  TGI: 36 nM and 84.7 nM
NCI-H226 lung
  GI50: 18.1 nM and 13.8 nM
  TGI: 80.3 nM and 61.8 nM
NCI-H23 lung
  GI50: 11.7 nM
  TGI: 50 nM
NCI-H460 lung
  TGI: 2.33 nM and 15.3 nM
NCI-H522 lung
  GI50: 1.65 nM
  TGI: 6.62 nM
NCI/ADR-RES ovarian
  GI50: 6.16 nM and 22.9 nM
  TGI: 27.6 nM and 248 nM
OVCAR-4 ovarian
  GI50: 10.4 nM and 23 nM
  TGI: 31.2 nM and 85.9 nM
OVCAR-5 ovarian
  GI50: 1.81 nM
  TGI: 17.7 nM and 14.8 nM
OVCAR-8 ovarian
  TGI: 13.2 nM
PC-3 prostate
  TGI: 10.4 nM and 103 nM
RPMI-8226 leukemia
  TGI: 219 nM
RXF 393 renal
  TGI: 2.55 nM
SF-268 CNS
  GI50: 1.01 nM
SF-295 CNS
  GI50: 7.99 nM and 31.9 nM
SF-539 CNS
  GI50: 1.41 nM and 13.2 nM
  TGI: 5.18 nM and 41.8 nM
SK-MEL-2 melanoma
  GI50: 1.62 nM
  TGI: 3.76 nM
SK-MEL-5 melanoma
  TGI: 4.31 nM
SK-OV-3 ovarian
  GI50: 37.5 nM and 45.2 nM
  TGI: 184 nM and 563 nM
SN12C renal
  GI50: 1.74 nM
  TGI: 19.3 nM
SNB-19 CNS
  GI50: 15.9 nM and 25.2 nM
  TGI: 404 nM and 290 nM
SNB-75 CNS
  GI50: 15.1 nM and 53.5 nM
  TGI: 48.2 nM and 263 nM
SR leukemia
  GI50: 28.8 nM
SW-620 colon
  TGI: 32.3 nM
T-47D breast
  GI50: 29.2 nM and 136 nM
TK-10 renal
  GI50: 1.88 nM
U251 CNS
  TGI: 108 nM and 160 nM
UACC-257 melanoma
  GI50: 3.79 nM
  TGI: 16.6 nM
UACC-62 melanoma
  GI50: 2.94 nM
  TGI: 15.1 nM and 18.5 nM
UO-31 renal
  GI50: 1.7 nM
  TGI: 7.49 nM and 23.7 nM
